Bridge positions count the residues as written; N and C are the ends. Peptide text beside a SMILES is read from it.
Legend:
[1] = target: Sodium channel protein type 9 subunit alpha (Homo sapiens, UniProt Q15858); assay: Inhibition of human NaV1.7 at -140 mV holding potential by whole-cell patch clamp assay
[2] = target: Sodium channel protein type 5 subunit alpha (Homo sapiens, UniProt Q14524); assay: Inhibition of human NaV1.5 at -140 mV holding potential by whole-cell patch clamp assay
Sodium channel protein type 5 subunit alpha, sequence (Q14524 whole entry): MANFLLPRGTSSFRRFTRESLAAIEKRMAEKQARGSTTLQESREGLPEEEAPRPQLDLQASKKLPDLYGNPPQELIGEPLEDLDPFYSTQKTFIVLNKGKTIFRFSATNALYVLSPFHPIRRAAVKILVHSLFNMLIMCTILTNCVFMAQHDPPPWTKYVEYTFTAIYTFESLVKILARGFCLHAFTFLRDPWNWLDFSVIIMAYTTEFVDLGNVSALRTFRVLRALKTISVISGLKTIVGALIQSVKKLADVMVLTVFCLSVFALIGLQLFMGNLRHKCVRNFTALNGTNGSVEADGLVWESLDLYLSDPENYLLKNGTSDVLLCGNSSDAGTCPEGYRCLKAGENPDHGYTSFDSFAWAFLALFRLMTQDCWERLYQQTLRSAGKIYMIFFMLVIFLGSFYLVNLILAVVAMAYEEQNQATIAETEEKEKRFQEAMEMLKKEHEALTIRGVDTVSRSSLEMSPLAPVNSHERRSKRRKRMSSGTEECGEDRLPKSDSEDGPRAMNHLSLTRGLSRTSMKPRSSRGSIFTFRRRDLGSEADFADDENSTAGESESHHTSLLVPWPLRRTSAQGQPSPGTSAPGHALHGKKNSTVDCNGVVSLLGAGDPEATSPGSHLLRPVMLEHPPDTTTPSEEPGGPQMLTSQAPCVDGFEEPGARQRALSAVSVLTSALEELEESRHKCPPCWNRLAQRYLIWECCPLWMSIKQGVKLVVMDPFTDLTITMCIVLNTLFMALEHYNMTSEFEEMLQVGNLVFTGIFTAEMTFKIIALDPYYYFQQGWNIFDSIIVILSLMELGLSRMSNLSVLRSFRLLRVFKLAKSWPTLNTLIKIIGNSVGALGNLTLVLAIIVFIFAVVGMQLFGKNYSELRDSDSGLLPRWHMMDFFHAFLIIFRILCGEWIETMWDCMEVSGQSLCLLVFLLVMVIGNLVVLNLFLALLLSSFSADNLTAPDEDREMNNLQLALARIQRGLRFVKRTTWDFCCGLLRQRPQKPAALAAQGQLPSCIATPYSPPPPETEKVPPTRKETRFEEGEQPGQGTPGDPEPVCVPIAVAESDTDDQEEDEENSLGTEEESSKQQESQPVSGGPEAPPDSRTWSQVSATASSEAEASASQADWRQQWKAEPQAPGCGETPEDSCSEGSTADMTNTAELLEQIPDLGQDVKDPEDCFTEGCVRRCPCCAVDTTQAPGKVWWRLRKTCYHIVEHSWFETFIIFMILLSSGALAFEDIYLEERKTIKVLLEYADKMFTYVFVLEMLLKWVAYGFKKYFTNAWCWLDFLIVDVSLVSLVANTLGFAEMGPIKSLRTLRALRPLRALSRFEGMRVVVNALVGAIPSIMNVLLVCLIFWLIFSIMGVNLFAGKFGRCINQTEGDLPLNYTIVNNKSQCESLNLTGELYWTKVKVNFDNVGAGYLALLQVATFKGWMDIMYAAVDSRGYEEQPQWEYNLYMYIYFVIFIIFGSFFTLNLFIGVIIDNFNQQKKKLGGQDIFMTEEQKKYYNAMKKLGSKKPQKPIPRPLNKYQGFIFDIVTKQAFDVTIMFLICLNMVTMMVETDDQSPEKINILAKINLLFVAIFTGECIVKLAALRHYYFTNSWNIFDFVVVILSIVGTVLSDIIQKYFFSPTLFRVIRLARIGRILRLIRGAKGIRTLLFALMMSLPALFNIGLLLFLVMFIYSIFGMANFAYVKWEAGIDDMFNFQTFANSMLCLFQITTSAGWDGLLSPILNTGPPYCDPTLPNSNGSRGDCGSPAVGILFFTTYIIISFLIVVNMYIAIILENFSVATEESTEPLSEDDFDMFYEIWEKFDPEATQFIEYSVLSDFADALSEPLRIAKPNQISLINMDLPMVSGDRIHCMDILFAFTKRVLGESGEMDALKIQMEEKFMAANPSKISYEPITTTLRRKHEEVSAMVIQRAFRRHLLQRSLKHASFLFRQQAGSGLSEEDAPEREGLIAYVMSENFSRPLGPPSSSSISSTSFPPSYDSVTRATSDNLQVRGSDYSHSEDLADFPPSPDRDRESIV

Sodium channel protein type 9 subunit alpha, sequence (Q15858 whole entry): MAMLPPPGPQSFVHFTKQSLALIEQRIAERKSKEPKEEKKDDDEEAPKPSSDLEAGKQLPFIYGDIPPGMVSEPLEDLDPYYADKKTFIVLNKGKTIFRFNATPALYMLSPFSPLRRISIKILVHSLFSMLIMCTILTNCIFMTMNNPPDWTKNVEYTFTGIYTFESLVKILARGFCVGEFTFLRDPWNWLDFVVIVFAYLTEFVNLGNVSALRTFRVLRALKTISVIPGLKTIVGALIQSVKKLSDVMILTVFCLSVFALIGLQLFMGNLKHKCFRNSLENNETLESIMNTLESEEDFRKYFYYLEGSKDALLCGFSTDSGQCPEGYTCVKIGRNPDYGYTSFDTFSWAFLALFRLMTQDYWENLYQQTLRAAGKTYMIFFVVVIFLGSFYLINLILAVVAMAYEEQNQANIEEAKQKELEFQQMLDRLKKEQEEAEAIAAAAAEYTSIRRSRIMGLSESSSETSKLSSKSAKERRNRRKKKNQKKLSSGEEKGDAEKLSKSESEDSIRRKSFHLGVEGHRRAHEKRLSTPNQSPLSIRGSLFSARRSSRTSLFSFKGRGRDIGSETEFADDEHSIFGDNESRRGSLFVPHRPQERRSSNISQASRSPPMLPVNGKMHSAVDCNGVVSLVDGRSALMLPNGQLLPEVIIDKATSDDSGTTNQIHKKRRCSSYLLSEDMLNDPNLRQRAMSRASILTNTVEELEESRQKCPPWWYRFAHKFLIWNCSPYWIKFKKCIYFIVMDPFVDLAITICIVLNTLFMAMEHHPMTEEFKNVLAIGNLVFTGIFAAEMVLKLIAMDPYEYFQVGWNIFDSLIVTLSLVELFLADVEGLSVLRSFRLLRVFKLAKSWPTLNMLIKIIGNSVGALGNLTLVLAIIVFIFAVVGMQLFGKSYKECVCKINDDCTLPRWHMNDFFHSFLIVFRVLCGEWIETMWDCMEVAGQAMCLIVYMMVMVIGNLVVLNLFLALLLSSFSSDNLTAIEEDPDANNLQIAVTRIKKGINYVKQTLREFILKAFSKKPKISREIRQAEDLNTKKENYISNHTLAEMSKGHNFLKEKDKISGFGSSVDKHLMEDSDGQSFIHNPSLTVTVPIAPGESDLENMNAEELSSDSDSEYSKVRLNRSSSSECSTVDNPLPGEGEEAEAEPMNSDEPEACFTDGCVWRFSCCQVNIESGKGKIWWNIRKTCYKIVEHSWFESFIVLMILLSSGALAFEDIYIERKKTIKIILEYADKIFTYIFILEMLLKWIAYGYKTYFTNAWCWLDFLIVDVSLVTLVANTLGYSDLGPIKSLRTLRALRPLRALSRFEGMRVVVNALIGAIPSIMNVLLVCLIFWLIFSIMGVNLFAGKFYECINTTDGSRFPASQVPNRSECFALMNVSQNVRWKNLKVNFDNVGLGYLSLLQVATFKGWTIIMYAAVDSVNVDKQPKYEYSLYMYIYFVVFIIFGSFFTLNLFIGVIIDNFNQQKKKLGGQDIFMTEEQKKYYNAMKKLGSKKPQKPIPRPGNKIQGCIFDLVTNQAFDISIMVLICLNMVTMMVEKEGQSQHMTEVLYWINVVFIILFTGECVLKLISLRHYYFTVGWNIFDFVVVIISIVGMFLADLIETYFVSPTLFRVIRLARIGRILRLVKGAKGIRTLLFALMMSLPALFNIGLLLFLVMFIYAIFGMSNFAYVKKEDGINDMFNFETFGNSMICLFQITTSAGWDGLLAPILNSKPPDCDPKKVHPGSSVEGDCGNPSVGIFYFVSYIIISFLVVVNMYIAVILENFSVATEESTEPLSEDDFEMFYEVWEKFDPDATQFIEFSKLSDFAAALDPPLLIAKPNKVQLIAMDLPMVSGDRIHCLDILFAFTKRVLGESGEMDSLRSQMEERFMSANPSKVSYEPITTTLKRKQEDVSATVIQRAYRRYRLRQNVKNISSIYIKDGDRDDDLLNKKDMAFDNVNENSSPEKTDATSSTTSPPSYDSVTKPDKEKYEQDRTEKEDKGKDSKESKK

| SMILES | IC50 [1] | IC50 [2] |
| --- | --- | --- |
| CC[C@H](C)[C@@H]1NC(=O)[C@@H]2CSSC[C@@H]3NC(=O)[C@H](C(C)C)NC(=O)[C@H](CC(C)C)NC(=O)[C@H](CC(N)=O)NC(=O)[C@@H]4CCCN4C(=O)[C@H](CCCNC(=N)N)NC(=O)[C@H](CSSC[C@H](NC(=O)[C@@H](N)CC(=O)O)C(=O)N[C@@H](CC(C)C)C(=O)NCC(=O)N[C@@H](C)C(=O)N[C@@H](CCSC)C(=O)N[C@@H](CCCNC(=N)N)C(=O)N[C@@H](CCCCN)C(=O)N2)NC(=O)[C@H](CSSC[C@@H](C(=O)N[C@@H](CCCCN)C(=O)N[C@@H](Cc2ccc(O)cc2)C(=O)N[C@H](C(=O)N[C@@H](Cc2ccccc2)C(N)=O)C(C)C)NC(=O)[C@H](Cc2c[nH]c4ccccc24)NC(=O)[C@H](CCCCN)NC(=O)[C@H](Cc2cnc[nH]2)NC(=O)[C@H](CC(C)C)NC(=O)[C@H](CCCNC(=N)N)NC(=O)[C@H](CO)NC3=O)NC(=O)[C@H](CCCCN)NC(=O)[C@H](CC(=O)O)NC(=O)[C@H](CC(N)=O)NC(=O)[C@H](CC(=O)O)NC(=O)[C@@H]2CCCN2C1=O (H-DCLGAMRKCIPDNDKCCRPNLVCSRLHKWCKYVF-NH2; disulfide 2-17, 9-23, 16-30) | 54 nM | > 10000 nM |
| CC[C@H](C)[C@@H]1NC(=O)[C@@H]2CSSC[C@@H]3NC(=O)[C@H](C(C)C)NC(=O)[C@H](CC(C)C)NC(=O)[C@H](CC(N)=O)NC(=O)[C@H](C)NC(=O)[C@H](CCCNC(=N)N)NC(=O)[C@H](CSSC[C@H](NC(=O)[C@@H](N)CC(=O)O)C(=O)N[C@@H](CC(C)C)C(=O)NCC(=O)N[C@@H](Cc4ccccc4)C(=O)N[C@@H](CCSC)C(=O)N[C@@H](CCCNC(=N)N)C(=O)N[C@@H](CCCCN)C(=O)N2)NC(=O)[C@H](CSSC[C@@H](C(=O)N[C@@H](CCCCN)C(=O)N[C@@H](Cc2ccc(O)cc2)C(=O)N[C@H](C(=O)N[C@@H](Cc2ccccc2)C(N)=O)C(C)C)NC(=O)[C@H](Cc2c[nH]c4ccccc24)NC(=O)[C@H](CCCCN)NC(=O)[C@H](Cc2cnc[nH]2)NC(=O)[C@H]([C@@H](C)O)NC(=O)[C@H](CCCNC(=N)N)NC(=O)[C@H](CO)NC3=O)NC(=O)[C@H](CCCCN)NC(=O)[C@H](CC(=O)O)NC(=O)[C@H](CC(N)=O)NC(=O)[C@H](CC(=O)O)NC(=O)[C@@H]2CCCN2C1=O (H-DCLGFMRKCIPDNDKCCRANLVCSRTHKWCKYVF-NH2; disulfide 2-17, 9-23, 16-30) | 90 nM | > 20000 nM |
| CC[C@H](C)[C@@H]1NC(=O)[C@@H]2CSSC[C@@H]3NC(=O)[C@H](C(C)C)NC(=O)[C@H](CC(C)C)NC(=O)[C@H](CC(N)=O)NC(=O)[C@@H]4CCCN4C(=O)[C@H](CCCNC(=N)N)NC(=O)[C@H](CSSC[C@H](NC(=O)[C@@H](N)CC(=O)O)C(=O)N[C@@H](CC(C)C)C(=O)NCC(=O)N[C@@H](C(C)C)C(=O)N[C@@H](CCSC)C(=O)N[C@@H](CCCNC(=N)N)C(=O)N[C@@H](CCCCN)C(=O)N2)NC(=O)[C@H](CSSC[C@@H](C(=O)N[C@@H](CCCCN)C(=O)N[C@@H](Cc2ccc(O)cc2)C(=O)N[C@H](C(=O)N[C@@H](Cc2ccccc2)C(N)=O)C(C)C)NC(=O)[C@H](Cc2c[nH]c4ccccc24)NC(=O)[C@H](CCCCN)NC(=O)[C@H](Cc2cnc[nH]2)NC(=O)[C@H]([C@@H](C)O)NC(=O)[C@H](CCCNC(=N)N)NC(=O)[C@H](CO)NC3=O)NC(=O)[C@H](CCCCN)NC(=O)[C@H](CC(=O)O)NC(=O)[C@H](CC(N)=O)NC(=O)[C@H](CC(=O)O)NC(=O)[C@@H]2CCCN2C1=O (H-DCLGVMRKCIPDNDKCCRPNLVCSRTHKWCKYVF-NH2; disulfide 2-17, 9-23, 16-30) | 19 nM | > 10000 nM |
| CC[C@H](C)[C@@H]1NC(=O)[C@@H]2CSSC[C@@H]3NC(=O)[C@H](C(C)C)NC(=O)[C@H](CC(C)C)NC(=O)[C@H](CC(N)=O)NC(=O)[C@@H]4CCCN4C(=O)[C@H](CCCNC(=N)N)NC(=O)[C@H](CSSC[C@H](NC(=O)[C@@H](N)CC(=O)O)C(=O)N[C@@H](CC(C)C)C(=O)NCC(=O)N[C@@H](C)C(=O)N[C@@H](Cc4c[nH]c5ccccc45)C(=O)N[C@@H](CCCNC(=N)N)C(=O)N[C@@H](CCCCN)C(=O)N2)NC(=O)[C@H](CSSC[C@@H](C(=O)N[C@@H](CCCCN)C(=O)N[C@@H](Cc2ccc(O)cc2)C(=O)N[C@H](C(=O)N[C@@H](Cc2ccccc2)C(N)=O)C(C)C)NC(=O)[C@H](Cc2c[nH]c4ccccc24)NC(=O)[C@H](CCCCN)NC(=O)[C@H](Cc2cnc[nH]2)NC(=O)[C@H]([C@@H](C)O)NC(=O)[C@H](CCCNC(=N)N)NC(=O)[C@H](CO)NC3=O)NC(=O)[C@H](CCCCN)NC(=O)[C@H](CC(=O)O)NC(=O)[C@H](CC(N)=O)NC(=O)[C@H](CC(=O)O)NC(=O)[C@@H]2CCCN2C1=O (H-DCLGAWRKCIPDNDKCCRPNLVCSRTHKWCKYVF-NH2; disulfide 2-17, 9-23, 16-30) | 59 nM | > 10000 nM |
| CC[C@H](C)[C@@H]1NC(=O)[C@@H]2CSSC[C@@H]3NC(=O)[C@H](C(C)C)NC(=O)[C@H](CC(C)C)NC(=O)[C@H](CC(N)=O)NC(=O)[C@@H]4CCCN4C(=O)[C@H](CCCNC(=N)N)NC(=O)[C@H](CSSC[C@H](NC(=O)[C@@H](N)CC(=O)O)C(=O)N[C@@H](CC(C)C)C(=O)NCC(=O)N(C)[C@@H](CC(C)C)C(=O)N[C@@H](CCSC)C(=O)N[C@@H](CCCNC(=N)N)C(=O)N[C@@H](CCCCN)C(=O)N2)NC(=O)[C@H](CSSC[C@@H](C(=O)N[C@@H](CCCCN)C(=O)N[C@@H](Cc2ccc(O)cc2)C(=O)N[C@H](C(=O)N[C@@H](Cc2ccccc2)C(N)=O)C(C)C)NC(=O)[C@H](Cc2c[nH]c4ccccc24)NC(=O)[C@H](CCCCN)NC(=O)[C@H](Cc2cnc[nH]2)NC(=O)[C@H]([C@@H](C)O)NC(=O)[C@H](CCCNC(=N)N)NC(=O)[C@H](CO)NC3=O)NC(=O)[C@H](CCCCN)NC(=O)[C@H](CC(=O)O)NC(=O)[C@H](CC(N)=O)NC(=O)[C@H](CC(=O)O)NC(=O)[C@@H]2CCCN2C1=O | 25 nM | > 10000 nM |
| CC[C@H](C)[C@@H]1NC(=O)[C@@H]2CSSC[C@@H]3NC(=O)[C@H](C(C)C)NC(=O)[C@H](CC(C)C)NC(=O)[C@H](CC(N)=O)NC(=O)[C@@H]4CCCN4C(=O)[C@H](CCCNC(=N)N)NC(=O)[C@H](CSSC[C@H](NC(=O)[C@@H](N)CC(=O)O)C(=O)N[C@@H](CC(C)C)C(=O)NCC(=O)N[C@@H](Cc4ccccc4)C(=O)N[C@@H](CCSC)C(=O)N[C@@H](CCCNC(=N)N)C(=O)N[C@@H](CCCCN)C(=O)N2)NC(=O)[C@H](CSSC[C@@H](C(=O)N[C@@H](C)C(=O)N[C@@H](Cc2ccc(O)cc2)C(=O)N[C@H](C(=O)N[C@@H](Cc2ccccc2)C(N)=O)C(C)C)NC(=O)[C@H](Cc2c[nH]c4ccccc24)NC(=O)[C@H](CCCCN)NC(=O)[C@H](Cc2cnc[nH]2)NC(=O)[C@H]([C@@H](C)O)NC(=O)[C@H](CCCNC(=N)N)NC(=O)[C@H](CO)NC3=O)NC(=O)[C@H](CCCCN)NC(=O)[C@H](CC(=O)O)NC(=O)[C@H](CC(N)=O)NC(=O)[C@H](CC(=O)O)NC(=O)[C@@H]2CCCN2C1=O (H-DCLGFMRKCIPDNDKCCRPNLVCSRTHKWCAYVF-NH2; disulfide 2-17, 9-23, 16-30) | > 5000 nM | > 5000 nM |

Source: ChEMBL document CHEMBL3414527, “Engineering potent and selective analogues of GpTx-1, a tarantula venom peptide antagonist of the Na(V)1.7 sodium channel” (J Med Chem, 2015)
